Test results as given in patent US10577322B2, “5-methoxytryptophan and its derivatives and uses thereof” (National Health Research Institutes, priority 2015, dated 2020).

What was measured:
IL-6 promoter = assay: IL-6 promoter-luciferase assay in RAW264.7 cells; assay type: cell-based, mouse; conditions: LPS 8 h
Procedure: RAW264.7 macrophages were cotransfected with COX-2 promoter-luciferase, IL-6 promoter-luciferase constructs as previously described (Lee, G. L., et al.) or p5xNF-κB-luciferase (Stratagene) and pcDNA3.1-β-galactosidase plasmids using FuGENE 6 (Roche). After overnight transfection, the cells were incubated with or without LPS in the presence or absence of 5-MTP for 8 h. After treatment, cells were lysed, and luciferase activity was measured using an assay kit (Promega). β-galactosidase activity was used to normalize the data.
Moreover, RAW264.7 cells and IL-6 promoter-luciferase plasmid transfected RAW264.7 cells were pretreated with different concentrations of 5-MTP for 30 min, followed by LPS stimulation for 8 h. IL-6 promoter activity was measured by luciferase assay. IL-6 level in culture supernatants was measured by ELISA.

[1] = system: LPS-induced cytokine production; assay type: cell-based, mouse
Procedure: Mouse RAW264.7 macrophages were from the American Type Culture Collection and cultured in DMEM containing 10% FBS. Cells were typically pre-incubated with or without 5-MTP (Sigma-Aldrich) for 30 min before LPS treatment, unless specified otherwise. The duration of LPS (100 ng/ml) treatment varied depending on the experiment.
(§1) Cytokine levels in the culture supernatants and serum were determined in microtiter plates (96-well) by a specific sandwich ELISA (Biosource) as previously described (Wu, J. Y. & Kuo, C. C. Pivotal role of ADP-ribosylation factor 6 in Toll-like receptor 9-mediated immune signaling. J Biol Chem 287, 4323-4334 (2012)) (Lee, G. L., et al. TLR 2 induces vascular smooth muscle cell migration through cAMP response element-binding protein-mediated interleukin-6 production. Arterioscler Thromb Vasc Biol 32, 2751-2760 (2012); hereinafter, Lee, G. L., et al.).

iNOS = iNOS immunohistochemistry in lung tissues of LPS-treated mice; assay type: in vivo; conditions: LPS 60 mg/kg; 12 h, 16 h and 24 h
Procedure: Prior to immunohistochemical detection of COX-2, iNOS, Ly6g, or cleaved caspase-3 in lung sections, sections were deparaffinized with xylene, progressively rehydrated through graded alcohols. Antigen sites were retrieved by heating the sections on slides in pH 8 EDTA antigen. retrieval (Trilogy; Cell Marque Corporation) in electric pressure cooker for 15 min. […] All antibodies described hereafter were diluted in blocking buffer. Sections were incubated at room temperature for 2 h with primary antibody and then washed in PBST. The sections were incubated with primary antibody amplifier quanta (Thermo) for 10 minutes. After rinsing with PBST, the sections were incubated with HRP Polymer Quanto (Thermo) for 10 minutes and washed three times with PBST. COX-2, iNOS, Ly6g and cleaved caspase-3 were visualized by the addition of DAB Quanto Chromogen: Substrate for 3 minutes. Tissues were also counterstained with hematoxylin.
Moreover, paraffin-embedded sections were prepared from lungs of mice injected with 60 mg/kg LPS with or without saline or 5-MTP at 12 h, 16 h and 24 h. COX-2 and inducible nitric oxide synthase (iNOS) protein levels in lung tissues were determined by immunohistochemistry by staining with anti-COX-2 and anti-iNOS antibodies, respectively. The results are shown in FIGS. 6A-6B, in which scale bars represent 100 μm. […]

[2] = system: proinflammatory cytokines; assay: Proinflammatory cytokines level in serum of LPS-treated mice (ELISA); assay type: in vivo
Procedure: C57BL/6 mice (6-8 wks old) were treated intraperitoneally with saline or with different concentrations of 5-MTP (23.4 or 100 mg/kg) for 30 min before intraperitoneal administration of LPS (60 mg/kg). Animals were monitored for survival and other clinical signs including ruffled fur, lethargy, diarrhea, and body weight loss. Some animals were sacrificed at different times after LPS injection. Blood samples, peritoneal exudates, lungs, and spleens were collected. All mouse experiments were approved by the institutional Animal Care and Use Committee, National Health Research Institutes.
as §1
Mice were injected intraperitoneally with or without different concentrations of 5-MTP or saline for 30 min, followed by LPS administration for the indicated time. Proinflammatory cytokines level in serum was measured by ELISA. (n=6 per group).

peritoneal macrophages = assay: Ex vivo cytokine production of peritoneal macrophages from endotoxemic mice; assay type: in vivo; conditions: macrophages isolated 8 h after LPS, 5-MTP 23.4 mg/kg, cultured 24 h
Procedure: To further confirm that 5-MTP deactivates peritoneal macrophages during endotoxemia, we evaluated the effect of 5-MTP on IL-1β and IL-6 production ex vivo in peritoneal macrophages isolated from untreated or 5-MTP-treated endotoxemic mice. Peritoneal macrophages were isolated 8 h after LPS injection with saline or 5-MTP (23.4 mg/kg) and cultured with medium alone. After 24 h, proinflammatory cytokines were measured by ELISA (n=3).

[3] = Spleen weight/body weight ratio in LPS-challenged mice; assay type: in vivo
Procedure: Furthermore, spleen weight/body weight (SW/BW) ratio was also assessed (n=6 mice/group).

p38 MAPK = assay: LPS-induced p38 MAPK phosphorylation in RAW264.7 cells (immunoblot); assay type: cell-based, mouse; conditions: LPS 4 h
Procedure: Cellular protein were resolved by 5% to 20% SDS-PAGE and transferred to nitrocellulose membranes and blotted with specific antibodies as previously described (Lee, G. L., et al.).
After pretreating RAW264.7 cells with different concentrations of 5-MTP for 30 min, cells were stimulated with LPS for 4 h. Cell lysates were immunoblotted with antibodies for p38, phospho-p38 (p-p38), ERK½, phospho-ERK½ (p-ERK½) or β-actin. […] Activation of p38 MAPK in macrophages is required for TLR-induced NF-κB activation, which is one of the key factors affecting TLR-induced cytokine production. Thus, we evaluated the effect of 5-MTP on LPS-induced. NF-κB activation.

RAW264.7 cells = assay: Cell viability by MTT assay; assay type: cell-based, mouse; conditions: 24 h
Procedure: Furthermore, RAW264.7 cells were treated with different concentrations of 5-MTP or 5-MTPE for 24 h. Cell viability was determined by MTT assay. In another experiment, after pretreating RAW264.7 cells with different concentrations of 5-MTP or 5-MTPE for 30 min, cells were stimulated with LPS for 24 h. IL-6 level in culture supernatants was measured by ELISA.

[4] = LPS-treated mice, dose- and time-dependent

| Compound | LPS-induced IL-6 promoter activity (IL-6 promoter) | Suppressive activity in LPS-induced cytokine production [1] | iNOS expression in lung tissues (iNOS) | all the tested serum cytokines ([2]; 5-MTP at 23.4 mg/kg) | all the tested serum cytokines ([2]; 5-MTP at 100 mg/kg) | rise of IL-12 ([2]; LPS-treated mice, data not shown) | blood level of IL-1β [2, 4] | blood level of IL-6 [2, 4] | blood level of INF-κ [2, 4] | blood level of TNF-α [2, 4] | ex vivo IL-1β production (peritoneal macrophages) | ex vivo IL-6 production (peritoneal macrophages) | spleen weight/body weight (SW/BW) ratio, spleen edema [3] | phosphorylation of p38 MAPK (p38 MAPK) | cell viability (MTT) (RAW264.7 cells) |
| --- | --- | --- | --- | --- | --- | --- | --- | --- | --- | --- | --- | --- | --- | --- | --- |
| COc1ccc2[nH]cc(C[C@H](N)C(=O)O)c2c1 [5-MTP, 5-methoxytryptophan] | inhibited | + | suppresses | significantly reduced | reduced the cytokines to the basal level | suppressed the rise | abated the elevation | abated the elevation | abated the elevation | abated the elevation | significantly suppressed | significantly suppressed | ameliorated spleen edema in a dose-dependent manner | dose-dependently blocked | – |
| COC(=O)C(N)Cc1c[nH]c2ccc(OC)cc12 (stereo not drawn) [5-MTPE, ester-5-MTP] | – | – | – | – | – | – | – | – | – | – | – | – | – | – | not cell viability |
